Article PMC9030166, “Natural Phaeosphaeride A Derivatives Overcome Drug Resistance of Tumor Cells and Modulate Signaling Pathways” (Pharmaceuticals, 2022)

Legend:
JNK (pThr183/pTyr185) = experiment: MILLIPLEX MAP 9-Plex, JNK active form in A431 lysates; format: cell-based, human; conditions: 10 μM; for JNK (pThr183/pTyr185) fluorescence intensity: A431 cell lysates, 1 h, M ± mx, control 50.9 ± 10.5; for activation of signaling pathway JNK (pThr183/pTyr185), in words: A431 cells
Description: (§1) We used the MILLIPLEX MAP Multi-Pathway Magnetic Bead 9-Plex-Cell Signaling Multiplex Assay, which allows the simultaneous detection of nine phosphorylated proteins that are markers of the main intracellular signaling pathways (phosphorylation site is indicated in parentheses), a universal transcription factor that controls the expression of immune response genes; apoptosis and cell cycle NFκB (pS536); cAMP-dependent transcription factor (CREB (pS133); mitogen-activated kinase p38 (pT180/pY182); stress-activated protein kinase JNK (pT183/pY185); ribosomal […]; transcription factors STAT3 (pS727) and STAT5A/B (pY694/699); protein kinase B (Akt) (pS473); and kinase regulated by extracellular signals ERK1/2 (pT185/pY187).
(§2) The effect of various concentrations of PPA derivatives on the cell culture was studied using xCelligence RTCA equipment (AceaBioscience, San Diego, CA, USA). The concentration closest to the IC50 (10 μM) was chosen as the experimental concentration. The selected concentration of phaeosphaeride A derivatives allows for the assessment of the early effect of compounds on cells and compares their effectiveness. In this experiment, the signaling pathways Akt (pSer473), p70S6K (pThr412), NFkB (p65-pSer536), and CREB (pSer133) were not activated (Table 8). The stress-activated signaling pathways ERK/MAP kinase 1/2 (pThr185/pTyr187), JNK (pThr183/pTyr185), and p38 (pThr180/pTyr182) were activated for these compounds.
(§3) We used a MILLIPLEX MAP Multi-Pathway Magnetic Bead 9-Plex-Cell Signaling Multiplex Assay kit (Merck/Millipore), according to the manufacturer’s protocol. A431 cells were cultured in DMEM with 10% FBS in 24-well plates. Compounds were added to the subconfluent cells at a concentration of 10 μM in DMEM medium for 1 h. Each compound was added in 5 experimental repeats. Cell lysates were prepared with lysis buffer (Millipore) with protease inhibitors (Complete, Roche); the protein concentration in the lysates was determined by the Lowry method. In samples equalized in protein concentration, the active forms of kinase cascades were determined using a Bio-Plex 200 fluorescent analyzer (Bio-Rad).

RPMI8226 = experiment: MTT cytotoxicity, RPMI8226 multiple myeloma cells; format: cell-based; conditions: Homo sapiens, RPMI-8226, suspension culture, 48 h
Description: (§4) Cell cultures used in the work: adhesive cultures HBL-100 cells (cells of a normal mammary gland epithelium, immortalized by the SV40 virus and acquired tumorigenicity); MCF-7 breast cancer cells; PC-3 prostate adenocarcinoma cells; HCT-116 colorectal cancer cells; non-small cell lung cancer cells A549; human embryonic kidney cells HEK293; suspension cultures (NCI-H929 and RPMI8226 multiple myeloma cells), K562 chronic myeloid leukemia cells; THP-1 acute monocytic leukemia cells; and Jurkat acute T-cell leukemia cells. We also used several primary cultures of soft tissue sarcomas at 3–4passeges, kindly provided by T.I. Fetisov (The Ethics Committee of N.N. Blokhin NMRCO, protocol code 18-28-09095 and date of approval 28 September 2018).
(§5) Modifications of cell lines: K562/i-S9 is a clone obtained after transfection of K562 cells with the ABCB1 (MDR1) gene-encoding P-glycoprotein [36]. Cells HBL-100/Dox and K562/i-S9_Dox are cells obtained by long-term selection with increasing concentrations of doxorubicin (Sigma-Aldrich, St. Louis, MO, USA) from HBL-100 and K562/i-S9 cells, respectively. MCF-7, A594 cells, and primary cultures of soft tissue sarcomas were cultured in DMEM medium (PanEko, Russia), PC-3 and HCT-116 cells and all suspension cultures in RPMI1640 medium (PanEko, Russia) supplemented with 10% fetal bovine serum (GE Healthcare LifeSciences, USA), and gentamicin at a concentration of 40 μg/mL at 37 °C and 5% CO2.
(§6) Cells MCF-7, PC-3, A549, and HCT-116, and primary cultures of STSwere seeded in 96-well plates, 6 × 10^3 cells per well in 90 μL of culture medium. Suspension cultures were seeded at a concentration of 25 × 10^3 cells per well in 135 μL of medium. The test substances were dissolved in DMSO (Applichem, Council Bluffs, IA, USA) until a concentration of 1 × 10^−^2 M was obtained; for the subsequent dilution of the substances, a serum-free culture medium was used. The next day, for adhesive cultures, and on the same day, for suspension cultures, substances were added to the plates in a volume of 10 μL (adhesive cultures) and 15 μL (suspension cultures) per well at various concentrations; each concentration was added in 3–4 repetitions. The cells were cultured in the presence of substances for 48 h. Then, MTT reagent (PanEko, Moscow, Russia) was added to the wells at a concentration of 5 mg/mL in a volume of 20 μL per well. After 1.5–2 h, the medium with the reagent was removed, and the precipitate of the crystals of formazan was dissolved in 60 μL of DMSO. The optical density was determined using a Multiskan FC spectrophotometer (Thermo Scientific, Waltham, MA, USA) at a wavelength of 540 nm.
(§7) Based on the results of the experiments, a schedule was plotted of the dependence of the percentage of surviving cells (from control) on the concentration of the compound, and the sought concentration IC50 was calculated. The experiments were carried out in 3–4 times.

Akt (pSer473) = experiment: MILLIPLEX MAP 9-Plex, Akt active form in A431 lysates; format: cell-based, human; conditions: A431 cell lysates, 10 μM, 1 h, M ± mx; control 76.4 ± 16.9
Description: as §1, §2, §3

PC3 = experiment: MTT cytotoxicity, PC-3 prostate adenocarcinoma cells; format: cell-based, human; conditions: 48 h; for IC50: Homo sapiens, PC-3, adhesive tumor culture
Description: as §4, §5, §6, §7

HEK293 = experiment: MTT cytotoxicity, human embryonic kidney cells HEK293; format: cell-based; conditions: 48 h
Description: as §4, §6, §7

[1] = test system: CMT № 3 (Epithelial Sarcoma (Metastasis)); experiment: MTT cytotoxicity, primary culture of soft tissue sarcoma CMT № 3; format: cell-based; conditions: Homo sapiens, 48 h
Description: (§8) It is believed that such cultures have a molecular profile that corresponds more with cells from the human body, in comparison with that of stable cultures of tumor cells (Table 3).
as §4, §5
as §6, with “Then, MTT reagent (PanEko, Moscow, Russia) was added to the wells at a concentration of 5 mg/mL in a volume of 20 μL per well. After 1.5–2 h, the medium with the reagent was removed, and the precipitate of the crystals of formazan was dissolved in 60 μL of DMSO.” left out
(§9) Based on the results of the experiments, a schedule was plotted of the dependence of the percentage of surviving cells (from control) on the concentration of the compound, and the sought concentration IC50 was calculated. […]

HCT-116 = experiment: MTT cytotoxicity, HCT-116 colorectal cancer cells; format: cell-based, human; conditions: 48 h; for IC50: Homo sapiens, HCT-116, adhesive tumor culture
Description: as §4, §5, §6, §7

CREB (pSer133) = experiment: MILLIPLEX MAP 9-Plex, CREB active form in A431 lysates; format: cell-based, human; conditions: A431 cell lysates, 10 μM, 1 h, M ± mx; control 154.5 ± 34.2
Description: as §1, §2, §3

MCF-7 = experiment: MTT cytotoxicity, MCF-7 breast cancer cells; format: cell-based; conditions: Homo sapiens, MCF7, adhesive tumor culture, 48 h
Description: as §4, §5, §6, §7

THP-1 = experiment: MTT cytotoxicity, THP-1 acute monocytic leukemia cells; format: cell-based; conditions: Homo sapiens, suspension culture, 48 h
Description: as §4, §5, §6, §7

[2] = test system: CMT № 2 (Malignant Schwannoma); experiment: MTT cytotoxicity, primary culture of soft tissue sarcoma CMT № 2; format: cell-based; conditions: Homo sapiens, 48 h
Description: as §8, §4, §5
as §6, with “Then, MTT reagent (PanEko, Moscow, Russia) was added to the wells at a concentration of 5 mg/mL in a volume of 20 μL per well. After 1.5–2 h, the medium with the reagent was removed, and the precipitate of the crystals of formazan was dissolved in 60 μL of DMSO.” left out
as §9

Row | Compound | JNK (pThr183/pTyr185) fluorescence intensity (JNK (pThr183/pTyr185)) | IC50 (RPMI8226) [nM] | Akt (pSer473) fluorescence intensity (Akt (pSer473)) | IC50 (PC3) [µM] | IC50 (HEK293) [µM] | IC50 [1] [µM] | IC50 (HCT-116) [µM] | CREB (pSer133) fluorescence intensity (CREB (pSer133)) | IC50 (MCF-7) [µM] | IC50 (THP-1) [nM] | IC50 [2] [nM] | activation of signaling pathway JNK (pThr183/pTyr185), in words (JNK (pThr183/pTyr185)) | IC50 value, PC3 (PC3; adhesive tumor culture) | IC50 value, HCT-116 (HCT-116; adhesive tumor culture)
1 | C=C1C2=C(C(=O)N1OC)[C@@H](N1CCCC1)[C@@](C)(O)[C@H](CCCCC)O2 [Compound 1] | 239.9 ± 23.9 *↑ rel. units | 1600 ± 300 | 112.6 ± 12.0 rel. units | 7.6 ± 0.9 | 5.1 ± 0.7 | 4.8 ± 0.9 | 7.6 ± 0.9 | 329.9 ± 48.4 *↑ rel. units | 3.9 ± 0.8 | 1500 ± 400 | 2500 ± 900 |  |  | 
2 | C=C1C2=C(C(=O)N1OC)[C@@H](N(C)C)[C@@](C)(O)[C@H](CCCCC)O2 [Compound 2, (2S,3R,4R)-4-(dimethylamino)-3-hydroxy-6-methoxy-3-methyl-7-methylene-2-pentyl-3,4,6,7-tetrahydropyrano[2,3-c]pyrrol-5(2H)-one] | 559.2 ± 31.5 *↑ rel. units | 1600 ± 500 | 132.4 ± 17.9 rel. units | 5.9 ± 3 | 4.2 ± 0.3 | 7.8 ± 0.6 | 4.2 ± 0.2 | 610.0 ± 113.0 *↑ rel. units | 3 ± 0.8 | 900 ± 300 | 1900 ± 500 | maximum degree of activation |  | 
3 | C=C1C2=C(C(=O)N1OC)[C@@H](N(CCCC)CCCC)[C@@](C)(O)[C@H](CCCCC)O2 [Compound 5, (2S,3R,4R)-4-(dibutylamino)-3-hydroxy-6-methoxy-3-methyl-7-methylene-2-pentyl-3,4,6,7-tetrahydropyrano[2,3-c]pyrrol-5(2H)-one] | 83.1 ± 8.3 *↑ rel. units | 6300 ± 300 | 100.9 ± 11.7 rel. units | 9.4 ± 1 | 8.2 ± 0.9 |  | 12 ± 0.9 | 202.1 ± 26.3 rel. units | 7.4 ± 0.5 | 8200 ± 600 |  | only slightly activated |  | 
4 | C=C1C2=C(C(=O)N1OC)[C@@H](N(CC)CCO)[C@@](C)(O)[C@H](CCCCC)O2 [Compound 9, (2S,3R,4R)-4-[ethyl(2-hydroxyethyl)amino]-3-hydroxy-6-methoxy-3-methyl-7-methylene-2-pentyl-3,4,6,7-tetrahydropyrano[2,3-c]pyrrol-5(2H)-one] | 117.9 ± 15.1 *↑ rel. units | 1800 ± 200 | 88.8 ± 10.7 rel. units | 7.8 ± 0.1 | 3.8 ± 0.4 | 13 ± 0.9 | 3.9 ± 0.1 | 339.8 ± 53.3 *↑ rel. units | 2.9 ± 1 | 1700 ± 200 | 4100 ± 1100 |  |  | 
5 | CCCCC[C@@H]1OC2=C(C(=O)N(OC)/C2=C\n2cnnc2)C(n2cnnc2)[C@@]1(C)O (stereo partly drawn) [Compound 10] | 157.2 ± 15.4 *↑ rel. units | 51000 ± 200 | 142.1 ± 9.5 *↑ rel. units |  | 41 ± 2.1 |  |  | 584.8 ± 105.5 *↑ rel. units | 49 ± 5.3 | 42000 ± 5200 |  | only slightly activated | not active | not active
